For this assay, the system named is renal hypertensive rats (2-kidney, 1-clip Goldblatt model). The assay is described as follows: blood pressure lowering in renal hypertensive rats (2-kidney, 1-clip Goldblatt model). The format is in vivo, rat. The note with it: single oral dose of 30 mg/kg. As for the experimental part: Finally, the compounds of Formula I were tested in vivo for blood pressure lowering effects in renal hypertensive rats (2-kidney, 1-clip Goldblatt model) according to the method described by S. Sen, et al, in Hypertension 1:427-434 (1979) and in Clin. Soc. 57:53-6, 1979.
Illustrative of the in vivo antihypertensive activity for compounds of Formula I is the data for 4-[2-(1-oxo-2,2,2-trifluoroethyl)-1H-pyrrol-1-yl]-2-propyl-1-[(2'-(1H-tetrazol-5-yl)biphen-4-yl)methyl]-1H-imidazole-5-carboxylic acid (Example 14). This compound lowers blood pressure by ≥50 mm Hg and is efficacious for more than 24 hours with a single oral dose of 30 mg/kg in the above rodent model.

Turning to `CCCc1nc(-n2cccc2C(=O)C(F)(F)F)c(C(=O)O)n1Cc1ccc(-c2ccccc2-c2nnn[nH]2)cc1` [Example 14, 4-[2-(1-Oxo-2,2,2-trifluoroethyl)-1H-pyrrol-1-yl]-2-propyl-1-[(2'-(1H-tetrazol-5-yl)biphen-4-yl)methyl]-1H-imidazole-5-carboxylic acid], the duration of efficacy entry is recorded as “more than 24 hours” and the lowers blood pressure is listed as no less than 50 mm Hg.

Values taken from US5276048A, “4-(1H-pyrrol-1-yl)imidazoles with angiotensin II antagonist activity” (Warner-Lambert Company, priority 1992, dated 1994).
